# Like-named read-outs stand apart in the source and are kept apart here.
# Legend:
# [1] = system: Du-145; assay: MTT cell viability assay, Du-145 prostate carcinoma cells; type: cell-based; conditions: Homo sapiens
# Description: (§1) Cell lines used in the study were grouped as follows: skin panel (melanomas: HTB140, derived from metastatic site: lymph node, ATCC Hs 294 T; malignant A375, ATCC CRL-1619; stage I primary WM793, RRID:CVCL 8787; skin keratinocytes HaCaT); prostate panel (prostate carcinomas: Du145, derived from metastatic site: brain, ATCC HTB-81; grade IV PC3, derived from metastatic site: bone, ATCC CRL-1435, LNCaP, derived from the metastatic site: lymph node, ATCC CRL-1740; prostate epithelial, PNT2, ECACC 95012613); gastrointestinal panel (colorectal adenocarcinomas: Caco2, ATCC HTB-37, HT29, ATCC HTB-38, DLD-1, ATCC CCL-221, HCT116, ATCC CCL-247, and colon epithelial cells CCD 841 CoN, ATCC CRL-1790; hepatocellular carcinoma HepG2, ATCC HB-8065); thyroid panel (follicular thyroid carcinoma FTC133, ECACC 9406090, undifferentiated thyroid carcinoma 8505C, ECACC 94090184, papillary thyroid carcinoma TPC-1, SCC147, normal thyroid follicular epithelial Nthy-ori 3–1, ECACC 90011609); and breast panel (ER-positive breast adenocarcinoma MCF7, ATCC HTB-22; ER-negative breast adenocarcinoma MDA-MB-231, ATCC HTB-26; breast epithelial MCF10A, ATCC CRL-10317). Cells were grown under standard conditions (37 °C, 5% CO2, relative humidity), and culture media (DMEM/F12 for PNT2, WM 793, HT29, PC3, FTC133, 8505 C, MDA-MB-231, TPC-1; DMEM Low Glucose for DU145; DMEM High Glucose for HTB140, A375, HaCaT; MEM with NEAA for Caco2 and MCF7; RPMI1640 with sodium pyruvate for LNCaP; DMEM/F12 with 20 ng/mL epidermal growth factor (EGF), 10 μg/mL insulin, 0.5 μg/mL hydrocortisone, 100 ng/mL cholera toxin) for MCF10A) supplemented with 10% fetal bovine serum (FBS) or 5% donor horse serum for MCF10A, and 1% antibiotics solution (10,000 U penicillin and 10 mg streptomycin/mL) […], as previously described. All cell lines, culture media, and supplements were from Sigma-Aldrich (Germany).
# (§2) The cells were seeded in 96-well plates (1.5 × 10^4 cells/well). After 24 h, fresh medium was added, containing the tested compounds (0.5–100 μg/mL) and incubated for 24 or 48 h. Cell viability was determined by MTT assay, according to the manufacturer’s instructions, as described previously. Each experiment was performed in triplicate. The absorbance was measured at 570 nm using a Biotek Synergy microplate reader (BioTek Instruments Inc., Winooski, VT, USA). Cell viability was expressed as a percent of control (untreated cells). Doxorubicin was used as a reference drug.
# [2] = system: PC3; assay: MTT cell viability assay, PC3 prostate carcinoma cells; type: cell-based; conditions: Homo sapiens, PC-3
# Description: as §1, §2
# [3] = system: LNCaP; assay: MTT cell viability assay, LNCaP prostate adenocarcinoma cells; type: cell-based; conditions: Homo sapiens
# Description: as §1, §2
# [4] = system: PNT2; assay: MTT cell viability assay, PNT2 normal prostate epithelial cells; type: cell-based; conditions: Homo sapiens
# Description: as §1, §2
# [5] = system: MDA-MB-231; assay: MTT cell viability assay, MDA-MB-231 breast adenocarcinoma cells; type: cell-based; conditions: Homo sapiens
# Description: as §1, §2
# [6] = system: MCF7; assay: MTT cell viability assay, MCF7 breast adenocarcinoma cells; type: cell-based; conditions: Homo sapiens
# Description: as §1, §2
# [7] = system: MCF10A; assay: MTT cell viability assay, MCF10A normal breast epithelial cells; type: cell-based; conditions: Homo sapiens, MCF-10A
# Description: as §1, §2
# [8] = system: FTC133; assay: MTT cell viability assay, FTC133 follicular thyroid carcinoma cells; type: cell-based, human; conditions: for IC50: Homo sapiens, FTC-133
# Description: as §1, §2
# (§3) The selectivity index (SI) was calculated from the following formula:SI = IC50 of compound in a normal cell line/IC50 of compound in cancer cell line.IC50, half maximal inhibitory concentration, is a concentration required to kill 50% of the cells.
# [9] = system: 8505C; assay: MTT cell viability assay, 8505C undifferentiated thyroid carcinoma cells; type: cell-based, human; conditions: for IC50: Homo sapiens, 8505C; for Selectivity Index (SI): IC50 Nthy-ori 3-1 / IC50 8505C
# Description: as §1, §2, §3
# [10] = system: TPC-1; assay: MTT cell viability assay, TPC-1 papillary thyroid carcinoma cells; type: cell-based, human; conditions: for IC50: Homo sapiens, TPC1
# Description: as §1, §2, §3
# [11] = system: Nthy-ori 3-1; assay: MTT cell viability assay, Nthy-ori 3-1 normal thyroid epithelial cells; type: cell-based; conditions: Homo sapiens
# Description: as §1, §2
# [12] = system: Caco-2; assay: MTT cell viability assay, Caco-2 colon cancer cells; type: cell-based; conditions: Homo sapiens
# Description: as §1, §2
# [13] = system: HT29; assay: MTT cell viability assay, HT29 colorectal adenocarcinoma cells; type: cell-based; conditions: Homo sapiens, HT-29
# Description: as §1, §2
# [14] = system: DLD-1; assay: MTT cell viability assay, DLD-1 colon cancer cells; type: cell-based; conditions: Homo sapiens
# Description: as §1, §2
# [15] = system: HCT116; assay: MTT cell viability assay, HCT116 colon cancer cells; type: cell-based; conditions: Homo sapiens, HCT-116
# Description: as §1, §2
# [16] = system: CCD 841 CoN; assay: MTT cell viability assay, CCD 841 CoN normal colon epithelial cells; type: cell-based; conditions: Homo sapiens
# Description: as §1, §2
# [17] = system: A375; assay: MTT cell viability assay, A375 malignant melanoma cells; type: cell-based, human; conditions: for IC50: Homo sapiens, A-375
# Description: as §1, §2, §3
# [18] = system: HaCaT; assay: MTT cell viability assay, HaCaT keratinocytes; type: cell-based; conditions: Homo sapiens
# Description: as §1, §2
# [19] = system: MCF-7 cells; conditions: cited from earlier work
compound,measurement,setting,value
"CC1(C)CCC2(C(=O)O)CCC3(C)C(=CCC4C5(C)CCC(OC6OC(C(=O)O)C(O)C(O)C6O)C(C)(C)C5CCC43C)C2C1 [CE, oleanolic acid-3-O-β-D-glucuronopyranoside]",IC50,"[1]; DU-145, 24 h",6.7 µg/mL
same,IC50,"[1]; DU-145, 48 h",4.3 µg/mL
same,IC50,"[2]; PC3, 24 h",5.6 µg/mL
same,IC50,"[2]; PC3, 48 h",2.9 µg/mL
same,IC50,[3]; 24 h,> 100 µg/mL
same,IC50,[3]; 48 h,> 100 µg/mL
same,IC50,[4]; 24 h,> 100 µg/mL
same,IC50,[4]; 48 h,> 100 µg/mL
same,IC50,"[5]; MDA-MB-231, 24 h",69.6 µg/mL
same,IC50,"[5]; MDA-MB-231, 48 h",23.5 µg/mL
same,IC50,"[6]; MCF7, 24 h",> 100 µg/mL
same,IC50,"[6]; MCF7, 48 h",39.5 µg/mL
same,IC50,[7]; 24 h,> 100 µg/mL
same,IC50,[7]; 48 h,> 100 µg/mL
same,IC50,"[8]; FTC133, 24 h",1.9 µg/mL
same,IC50,"[8]; FTC133, 48 h",1.1 µg/mL
same,Selectivity Index (SI),"[8]; IC50 Nthy-ori 3-1 / IC50 FTC133, 24 h",38.6
same,Selectivity Index (SI),"[8]; IC50 Nthy-ori 3-1 / IC50 FTC133, 48 h",28.1
same,IC50,[9]; 24 h,2.8 µg/mL
same,IC50,[9]; 48 h,1.8 µg/mL
same,Selectivity Index (SI),[9]; 24 h,26.9
same,Selectivity Index (SI),[9]; 48 h,16.5
same,IC50,"[10]; TPC-1, 24 h",8.5 µg/mL
same,IC50,"[10]; TPC-1, 48 h",5.8 µg/mL
same,Selectivity Index (SI),"[10]; IC50 Nthy-ori 3-1 / IC50 TPC-1, 24 h",9.0
same,Selectivity Index (SI),"[10]; IC50 Nthy-ori 3-1 / IC50 TPC-1, 48 h",5.1
same,IC50,[11]; 24 h,76 µg/mL
same,IC50,[11]; 48 h,30.1 µg/mL
same,IC50,"[12]; Caco-2, 24 h",2 µg/mL
same,IC50,"[12]; Caco-2, 48 h",1 µg/mL
same,IC50,"[13]; HT29, 24 h",4.5 µg/mL
same,IC50,"[13]; HT29, 48 h",2 µg/mL
same,IC50,"[14]; DLD-1, 24 h",31.2 µg/mL
same,IC50,"[14]; DLD-1, 48 h",9 µg/mL
same,IC50,"[15]; HCT116, 24 h",14.3 µg/mL
same,IC50,"[15]; HCT116, 48 h",10.2 µg/mL
same,IC50,[16]; 24 h,> 100 µg/mL
same,IC50,[16]; 48 h,> 100 µg/mL
same,IC50,"[17]; A375, 24 h",1.8 µg/mL
same,IC50,"[17]; A375, 48 h",0.8 µg/mL
same,Selectivity Index (SI),"[17]; IC50 HaCaT / IC50 A375, 24 h",2.9
same,Selectivity Index (SI),"[17]; IC50 HaCaT / IC50 A375, 48 h",2.6
same,IC50,[18]; 24 h,5.1 µg/mL
same,IC50,[18]; 48 h,2 µg/mL
same,IC50,"[19]; 48 h, ref 13",35.4 µg/mL
same,IC50,"[19]; 48 h, ref 14, read-out: IC50",19.7 µM
same,IC50,"[19]; 72 h, read-out: IC50",13.4 µM
